pIC50: −log10 of the molar value. Where “and” joins values, the source holds several entries; their conditions need not be identical. Equal entries are not always repeated.

The pIC50 is the negative decadic logarithm of the IC50, by convention in mol/L. The melting point is the temperature, or range, at which the solid turns liquid.

Data set [1] relates to MCF-7 cells. As to the kind of experiment: Annexin V-FITC/PI apoptosis induction analysis (flow cytometry). The format is cell-based, human. The settings on record: MCF-7, compound at its IC50, 24 h.
The subject of data set [2] is human breast adenocarcinoma (MCF-7). Put plainly: MTT cytotoxicity assay, MCF-7. The format is cell-based. The settings on record: for pIC50: Homo sapiens, MCF7, MTT, 24 h treatment, read-out: IC50 against MCF-7; for folds more active than doxorubicin: MCF-7; for Selectivity Index (SI): against MCF-7, relative to normal MCF-10a. The method, then:
(§1) (Supplementary file). Compounds 5b and 5h were screened for their effects on the normal breast cell line MCF‐10a. Cells at a density of 1 × 104 were seeded in a 96‐well plate at 37 °C for 48 h under 5% CO2. After incubation, the cells were treated with different concentrations of the prepared molecules and incubated for 24 h. MTT dye was added after 24 h of drug treatment and incubated for 4 h at 37 °C. Also, 100 μl of dimethyl sulphoxide was added to each well to dissolve the purple formazan formed. The colour intensity of the formazan product, which represents the growth condition of the cells, was quantified using an enzyme‐linked immunosorbent assay (ELISA) plate reader at 570 nm. The experiments were carried out with at least three replicates and they were repeated at least three times.
(§2) All chemicals, solvents, media and kits were purchased from commercial suppliers.
(§3) In vitro anticancer screening […]
(§4) against three cancer cell lines namely: hepatocellular carcinoma (HepG2), human breast adenocarcinoma (MCF-7) and human colon cancer (HCT -116) utilizing MTT assay2. Compounds […]
(§5) 5b and 5h were screened for their effects on the normal breast cell line MCF‐10a. Cells at a density of 1 × 104 were seeded in a 96‐well plate at 37°C for 48 hr under 5% CO2. After incubation, the cells were treated with different concentrations of the prepared molecules and incubated for 24 hr.
(§6) MTT dye was added after 24 h of drug treatment and incubated for 4 h at 37°C. Also, 100 μl of dimethyl sulphoxide was added to each well to dissolve the purple formazan formed. The color intensity of the formazan product, which represents the growth condition of the cells, was quantified using an enzyme‐linked immunosorbent assay (ELISA) plate reader at 570 nm. The experiments were carried out with at least three replicates and they were repeated at least three […]
(§7) *: Statistically significant at p ≤ 0.05
(§8) Means with any Common letter (a-e) are not significant (OR Means with totally Different letters (a-e) are significant)

A further data set has as its system calf thymus DNA (ctDNA). As to the kind of experiment: Terbium (Tb3+) luminescent biosensor detection of induced DNA damage. The settings on record: for Tb luminescence enhancement (induced DNA damage): ctDNA incubated with compound 24 h, emission 545 nm, excitation 270 nm, compared with ctDNA-Tb mixture; for Concentration at which Tb luminescence stops increasing (maximum DNA damage) / LOD (limit of detection; minimum concentration inducing detectable damage in ctDNA) / LOQ (limit of quantitation): ctDNA, 24 h incubation. The format is biochemical. An excerpt: Luminescence studies were accomplished in order to examine the possible DNA interaction with the studied compounds. Many luminescent biosensors are reported in literature for studying the possibility of DNA interaction with small molecules. […] Figure 5 presents a schematic diagram for the fluorometric detection of the induced DNA damage using Tb biosensor. Tb^3+ ion in the Tb luminescent probe is a trivalent lanthanide cation having low intrinsic luminescence in aqueous solutions[45]^,[46]. When Tb biosensor is added to a solution of DNA, it interacts differently with double-stranded DNA (dsDNA) and single-stranded DNA (ssDNA). With dsDNA, Tb^3+ ions are electrostatically attracted to the negatively charged phosphate backbone of the DNA. […] Therefore, the assessed compound damages dsDNA, ssDNA sites would be formed opposite to the site of damage and Tb^3+ would directly coordinate to the unpaired nucleobases in this single-stranded site.
For investigating the DNA interaction potential of the fourteen studied compounds, calf thymus DNA (ctDNA) was incubated with each compound for 24 h and then Tb was added to each mixture. Doxorubicin (DOX), a commonly used reference for DNA damaging agent was used and treated the same condition as the studied compounds. Tb luminescent intensity was measured at λmax = 545 nm after excitation at λmax = 270 nm.
Several concentrations within the range of 0.1 pM–200.0 μM of each of the studied compounds were incubated with ctDNA for 24 h. After which, Tb solution was added to aliquots of such mixtures and the luminescence intensity was recorded. Figure 7 presents Tb luminescence intensity as a function of the compound concentration for various compound/ctDNA/Tb mixtures. At minimum concentration of the studied compounds, minimum Tb luminescence was recorded. This reflects that the DNA molecule is undamaged, intact and acquiring a double helical structure. In this conformation, Tb ions are electrostatically attracted to the negatively charged DNA-phosphate backbone showing no increase in its luminescence. For solutions with higher concentrations of compounds 5b, 5h, and 5j (Figure 7a,c,and d). Tb fluorescence increased proportionally with the concentration until a concentration of 100 and 60 μM for compounds 5b, 5h, and 5j, respectively, where no further increase in the fluorescence occurs. This reflects that more DNA damage is induced with increasing concentrations of the three compounds. At concentrations higher than 100 and 60 μM for compounds 5b, 5h, and 5j, respectively, Tb luminescence remains constant at high fluorescence levels. […] Table 1 illustrates the analytical parameters elucidated as shown in Figure 7 for the quantification of the induced DNA damage by the studied compounds. The linearity parameters were calculated from the calibration curve in Figure 7-inset in order to obtain the minimum concentration of the studied compounds that would induce DNA damage.
Fluorescence measurements: Fluorescence spectra were measured between 290 and 800 nm with excitation at 270 nm of 100 µL solutions in a 1 cm path length Suprasil quartz fluorescence cuvette.
The PerkinElmer LS 55 fluorescence spectrophotometer was used to measure the fluorescence. After 24 h of incubation in buffer solution (40 mM Tris, 10 mM NaCl, pH 7.5), aliquots of each DNA-Compound mixture were combined with TbCl3 to confirm DNA damage. The final concentrations were […] ctDNA, 3 mM TbCl3, and 50 µM of each compound in buffer solution (40 mM Tris, 10 mM NaCl, pH 7.5). Calf thymus DNA (ctDNA) was combined with various quantities of each substance, ranging from 0.1 pM to 200 µM, for the experiment. The ultimate concentrations of […] ctDNA and 3 mM were achieved by adding Tb3 + solution to the ctDNA/compound combinations in buffer solution (40 mM Tris, 10 mM NaCl, pH 7.5) after 24 h of incubation.[44]
All chemicals, solvents, media and kits were purchased from commercial suppliers. […]

Data set [3] concerns hepatocellular carcinoma (HepG2). As to the kind of experiment: MTT cytotoxicity assay, HepG2. The settings on record: Homo sapiens, 24 h treatment, read-out: IC50 against HepG2. Format: cell-based. The method, then:
as §1, §2, §3, §4, §5, §6, §7, §8

In data set [4] the test system is MCF-7 cells. Put plainly: Cell cycle analysis (DNA flow cytometry, PI). The settings on record: for Phase of cell cycle arrest: MCF-7, compound at its IC50; for Cell cycle arrest (%) G0-G1 / Cell cycle arrest (%) G2/M / Cell cycle arrest (%) S: MCF-7, compound at its IC50, 24 h. A general note: Flow cytometry measures light scatter and fluorescence of single cells or particles in a stream.
Procedure: Cell cycle analysis: A FACS Calibur flow cytometer was used to measure the amount of DNA in the cell cycle analysis at 488 nm in accordance with the manufacturer’s recommendations. […] Cells were treated, rinsed twice, and then re-suspended in ice-cold PBS (phosphate buffer saline). After washing, 0.7 ml of 100% ethanol was added, and the mixture was then allowed to sit at 20 °C for 20 min. After washing, 500 μl of RNase was added, and then the mixture was incubated for 30 min. After that, PI was added, and the mixture was incubated without light for 30 min[22]^,[51].
3 Replica for each group Data was expressed using Mean ± SEM.
F: F for One way ANOVA test, Pairwise comparison bet. each 2 groups was done using Post Hoc Test (Tukey)
p: p value for comparing between the studied groups
p0: p value for comparing between Control and each other group
p1: p value for comparing between 5h and 5b
p2: p value for comparing between 5h and Dox
p3: p value for comparing between 5b and Dox
DNA content in the cell cycle analysis was quantified with the help ofa FACS Calibur flow
cytometer at 488 nm according to the manufacturer's instructions. Briefly, 2 × 10^5 cells/well were
cells were washed two times and resuspended in ice-cold phosphate buffer saline PBS. After
washing, 0.7 ml absolute ethanol was then added, followed by incubation at −20°C for 20 min.
After washing, 500 μl RNase was added, followed by incubation for 30 min. PI was then added,
followed by incubation for 30 min (light was avoided).

The subject of data set [5] is human colon cancer (HCT-116). As to the kind of experiment: MTT cytotoxicity assay, HCT-116. The settings on record: 24 h treatment, read-out: IC50 against HCT-116. The format is cell-based. The method, then: as §2, §3, §4, §5, §6, §7, §8
A general note: Tetrazolium dyes change colour on reduction, which living cells bring about.

For data set [6], the system named is normal breast cell line (MCF-10a). As to the kind of experiment: MTT cytotoxicity assay, normal breast cell line MCF-10a. Format: cell-based. Conditions: Homo sapiens, 24 h treatment, read-out: IC50 against MCF-10a (normal cell). The method, then:
as §1, §5, §6, §7
Means with any Common letter (a-e) are not significant (OR Means with totally Different letters (a-e) are significant) Annexin V-FITC/PI Apoptosis Induction Analysis 3
Apoptosis detection in MCf-7 cells was assessed using BioVision® annexin‐V‐FITC apoptosis detection kit according to the manufacturer's instructions and quantified by flow cytometry at 488

Data set [7] has as its target T1, human DNA topoisomerase II-β (TOPII-β) (Homo sapiens, UniProt Q02880).
T1 construct: own knowledge) MBS#942146
As to the kind of experiment: In vitro topoisomerase II inhibitory assay (ELISA kit). Format: biochemical. The settings on record: ELISA kit MBS#942146; read-out: IC50 against topo II enzyme.
Excerpt: Doxorubicin was used as a positive control. […] (Supplementary file).
SEM: Standard error of mean
as §7
Means with any Common letter (a-d) are not significant (OR Means with totally Different letters (a-d) are significant)
Doxorubicin was used as a positive control.
Background: In an ELISA, binding on a coated surface is turned into a signal by an enzyme label.

T1 sequence (Q02880 whole entry): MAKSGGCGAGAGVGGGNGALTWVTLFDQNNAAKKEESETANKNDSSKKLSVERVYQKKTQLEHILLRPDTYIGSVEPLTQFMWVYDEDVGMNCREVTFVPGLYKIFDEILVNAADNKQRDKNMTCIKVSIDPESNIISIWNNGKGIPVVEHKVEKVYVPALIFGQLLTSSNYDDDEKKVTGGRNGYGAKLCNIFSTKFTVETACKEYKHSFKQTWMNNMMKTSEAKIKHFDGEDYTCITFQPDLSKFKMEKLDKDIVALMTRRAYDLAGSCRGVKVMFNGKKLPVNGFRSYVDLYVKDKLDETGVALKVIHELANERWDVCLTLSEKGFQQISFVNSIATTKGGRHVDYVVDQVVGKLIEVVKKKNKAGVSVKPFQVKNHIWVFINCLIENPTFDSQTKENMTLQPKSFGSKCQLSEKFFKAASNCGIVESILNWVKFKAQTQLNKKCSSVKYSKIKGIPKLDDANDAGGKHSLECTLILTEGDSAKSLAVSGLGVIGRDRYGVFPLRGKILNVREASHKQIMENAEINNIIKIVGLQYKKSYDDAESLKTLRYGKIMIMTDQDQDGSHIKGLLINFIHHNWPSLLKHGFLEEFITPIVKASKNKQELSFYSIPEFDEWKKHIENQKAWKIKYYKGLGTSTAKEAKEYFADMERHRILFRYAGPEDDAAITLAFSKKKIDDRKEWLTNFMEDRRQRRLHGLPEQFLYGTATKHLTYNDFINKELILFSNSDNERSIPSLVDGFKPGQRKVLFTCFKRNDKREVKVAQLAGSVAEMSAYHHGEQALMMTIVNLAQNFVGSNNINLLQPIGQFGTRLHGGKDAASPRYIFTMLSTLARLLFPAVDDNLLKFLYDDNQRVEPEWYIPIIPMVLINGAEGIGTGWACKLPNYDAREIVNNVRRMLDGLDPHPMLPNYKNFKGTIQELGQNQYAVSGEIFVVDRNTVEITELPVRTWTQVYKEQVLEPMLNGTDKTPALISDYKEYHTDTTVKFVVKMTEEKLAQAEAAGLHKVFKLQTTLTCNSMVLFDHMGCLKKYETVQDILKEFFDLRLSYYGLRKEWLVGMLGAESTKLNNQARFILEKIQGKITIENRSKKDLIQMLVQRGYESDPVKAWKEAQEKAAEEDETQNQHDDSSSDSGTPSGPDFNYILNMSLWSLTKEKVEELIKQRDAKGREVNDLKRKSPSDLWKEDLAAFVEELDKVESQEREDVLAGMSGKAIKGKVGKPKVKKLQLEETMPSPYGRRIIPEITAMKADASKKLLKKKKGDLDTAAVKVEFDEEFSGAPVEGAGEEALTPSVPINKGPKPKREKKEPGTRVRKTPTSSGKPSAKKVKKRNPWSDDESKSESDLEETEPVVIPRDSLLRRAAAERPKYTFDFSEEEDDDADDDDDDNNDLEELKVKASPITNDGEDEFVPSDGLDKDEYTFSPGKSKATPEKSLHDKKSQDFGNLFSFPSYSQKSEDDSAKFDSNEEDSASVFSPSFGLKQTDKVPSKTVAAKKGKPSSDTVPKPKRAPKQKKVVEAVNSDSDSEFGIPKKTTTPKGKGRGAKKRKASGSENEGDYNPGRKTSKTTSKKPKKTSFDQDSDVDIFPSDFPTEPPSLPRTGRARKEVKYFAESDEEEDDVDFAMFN

In the case of `O=C1C(=Nn2cc(-c3ccccc3)n(-c3ccccc3)c2=S)c2cccc3cccc1c23` [5b, 2-((3,4-Diphenyl-2-thioxo-2,3-dihydro-1H-imidazol-1-yl)imino)acenaphthylen-1(2H)-one], the melting point lay in the range of 240 to 242 °C. Also, in the data set on MCF-7 cells [1], the “Apoptosis results: Early apoptosis” value is 15.3 ± 0.50%; the “Apoptosis results: Late apoptosis” value was 22.7 ± 0.43% and 22.69%; the “Apoptosis results: Necrosis” value amounted to 8.7 ± 0.44%; the “Apoptosis results: Total” value is reported as 46.6 ± 0.57%. In data set [2], the pIC50 is 5.29, the “folds more active than doxorubicin” value was 1.5 folds and the “Selectivity Index (SI)” value was found to be 17.58. In the data set with calf thymus DNA (ctDNA), the “Tb luminescence enhancement (induced DNA damage)” value (shortened to “Tb luminescence enhancement”) was “significant enhancement”, the “Concentration at which Tb luminescence stops increasing (maximum DNA damage)” value came out at 100 µM, the “LOD (limit of detection; minimum concentration inducing detectable damage in ctDNA)” value is given as 7.78 nM and the “LOQ (limit of quantitation)” value was 25.9 nM. Besides, in data set [3], the negative-log IC50 (pIC50) is 5.13. For the same compound, in the data set with MCF-7 cells [4], the “Phase of cell cycle arrest” value is reported as “S phase”, the “Cell cycle arrest (%) G0-G1” value is given as 52.7 ± 0.30%, the “Cell cycle arrest (%) G2/M” value is 13.4 ± 0.41% and the “Cell cycle arrest (%) S” value was 33.8 ± 0.70%. Moreover, the negative-log IC50 (pIC50) in data set [5] was 4.77. Moreover, in data set [6], the pIC50 was 4.05.

In turn, `O=C1C(=Nn2cc(-c3ccc(Cl)cc3)n(-c3ccccc3)c2=S)c2cccc3cccc1c23` [5h, 2-((4-(4-chlorophenyl)-3-phenyl-2-thioxo-2,3-dihydro-1H-imidazol-1-yl)imino)-acenaphthylen-1(2H)-one] returned a melting point of 260 to 262 °C. Also, in the data set on MCF-7 cells [1], the “Apoptosis results: Early apoptosis” value is recorded as 16.5 ± 0.64%; the “Apoptosis results: Late apoptosis” value is 28.4 ± 0.62% and 28.52%; the “Apoptosis results: Necrosis” value is reported as 7.5 ± 0.68%; the “Apoptosis results: Total” value was 52.5 ± 0.68%. Further, in [2], the negative logarithm of the IC50 (pIC50) was 5.58, the “folds more active than doxorubicin” value is listed as 3 folds and the “Selectivity Index (SI)” value was found to be 49.27. In the data set on calf thymus DNA (ctDNA), the “Tb luminescence enhancement” value is “significant enhancement”, the “Concentration at which Tb luminescence stops increasing (maximum DNA damage)” value stood at 100 µM, the “LOD (limit of detection; minimum concentration inducing detectable damage in ctDNA)” value is recorded as 7.14 nM and the “LOQ (limit of quantitation)” value is 23.8 nM. The pIC50 in data set [3] was 5.31. Besides, in the data set with MCF-7 cells [4], the “Phase of cell cycle arrest” value is on record as “S phase”, the “Cell cycle arrest (%) G0-G1” value is recorded as 48.6 ± 0.73%, the “Cell cycle arrest (%) G2/M” value turned out to be 9.7 ± 0.36% and the “Cell cycle arrest (%) S” value is on record as 41.7 ± 0.39%. Moreover, the negative logarithm of the IC50 (pIC50) in data set [5] is 4.36. Besides, in data set [6], the pIC50 was 3.88. For the same compound, the pIC50 in data set [7] is 6.47.

`COc1cccc2c1C(=O)c1c(O)c3c(c(O)c1C2=O)C[C@@](O)(C(=O)CO)C[C@@H]3O[C@H]1C[C@H](N)[C@H](O)[C@H](C)O1` [doxorubicin, reference compound]: in the data set with MCF-7 cells [1], the “Apoptosis results: Early apoptosis” value amounted to 8.3 ± 0.53%, the “Apoptosis results: Late apoptosis” value is reported as 31.3 ± 0.62% and the “Apoptosis results: Total” value is recorded as 46.2 ± 0.53%. For the same compound, in the data set on MCF-7 cells [1] (listed as Dox), the “Apoptosis results: Early apoptosis” value came to 8.3 ± 0.53%, the “Apoptosis results: Late apoptosis” value turned out to be 31.3 ± 0.62% and the “Apoptosis results: Necrosis” value worked out at 6.6 ± 0.61%. In data set [2], the pIC50 is 5.08 and the “Selectivity Index (SI)” value is 3.9. Also, in the data set with calf thymus DNA (ctDNA), the “Tb luminescence enhancement” value was “significant enhancement”, the “LOD (limit of detection; minimum concentration inducing detectable damage in ctDNA)” value is on record as 4.09 nM and the “LOQ (limit of quantitation)” value stood at 13.7 nM. Further, the “Phase of cell cycle arrest” value in the data set on MCF-7 cells [4] is listed as “G1/S phase”. Further, in the data set on MCF-7 cells [4] (listed as Dox), the “Cell cycle arrest (%) G0-G1” value amounted to 63.5 ± 0.51%, the “Cell cycle arrest (%) G2/M” value came out at 2.4 ± 0.73% and the “Cell cycle arrest (%) S” value came out at 34.2 ± 0.22%. Besides, the negative-log IC50 (pIC50) in data set [6] is 4.49.

The values are drawn from article PMC10946275, “New imidazole-2-thiones linked to acenaphythylenone as dual DNA intercalators and topoisomerase II inhibitors: structural optimization, docking, and apoptosis studies” (Journal of Enzyme Inhibition and Medicinal Chemistry, 2024).
